In PMC7162861, “Synthesis, cytotoxicity, pharmacokinetic profile, binding with DNA and BSA of new imidazo[1,2-a]pyrazine-benzo[d]imidazol-5-yl hybrids” (Scientific Reports, 2020):

What was measured:
DU-145 = experiment: NCI cytotoxicity screen, Prostate Cancer panel; type: cell-based, human
Method: (§1) Cytotoxicity was performed at National Cancer Institute (NCI), Bethesda, USA as per their protocols.

PC-3 = experiment: NCI cytotoxicity screen, Prostate Cancer panel; type: cell-based, human; conditions: five dose 0.01–100 µM
Method: as §1

K-562 = experiment: NCI cytotoxicity screen, Leukemia panel; type: cell-based
Method: as §1

RPMI-8226 = experiment: NCI cytotoxicity screen, Leukemia panel; type: cell-based; conditions: for GI50: RPMI-8226, RPMI-8226
Method: as §1

CCRF-CEM = experiment: NCI cytotoxicity screen, Leukemia panel; type: cell-based
Method: as §1

MOLT-4 = experiment: NCI cytotoxicity screen, Leukemia panel; type: cell-based; conditions: MOLT-4
Method: as §1

SR = experiment: NCI cytotoxicity screen, Leukemia panel; type: cell-based
Method: as §1

HL-60(TB) = experiment: NCI cytotoxicity screen, Leukemia panel; type: cell-based
Method: as §1

TK-10 = experiment: NCI cytotoxicity screen, Renal Cancer panel; type: cell-based, human; conditions: five dose 0.01–100 µM
Method: as §1

786-0 = experiment: NCI cytotoxicity screen, Renal Cancer panel; type: cell-based, human; conditions: five dose 0.01–100 µM
Method: as §1

[1] = Experimental log P, shake-flask method; type: physicochemical; conditions: n-octanol/phosphate buffer pH 7.4, read-out: Exp. Log P
Outline: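 Shake-flask partitioning between n-octanol and phosphate buffer pH 7.4, shaken 50 min, then centrifuged 35 min at 2500 rpm. Buffer-phase absorbance at each compound's λmax measured before and after partitioning. P calculated from absorbance drop and phase volume ratio.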

SK-MEL-2 = experiment: NCI cytotoxicity screen, Melanoma panel; type: cell-based
Method: as §1

MALME-3M = experiment: NCI cytotoxicity screen, Melanoma panel; type: cell-based
Method: as §1

SK-MEL-5 = experiment: NCI cytotoxicity screen, Melanoma panel; type: cell-based
Method: as §1

SK-MEL-28 = experiment: NCI cytotoxicity screen, Melanoma panel; type: cell-based
Method: as §1

MDA-MB-435 = experiment: NCI cytotoxicity screen, Melanoma panel; type: cell-based; conditions: MDA-MB-435
Method: as §1

UACC-257 = experiment: NCI cytotoxicity screen, Melanoma panel; type: cell-based
Method: as §1

SNB-75 = experiment: NCI cytotoxicity screen, CNS Cancer panel; type: cell-based
Method: as §1

SNB-19 = experiment: NCI cytotoxicity screen, CNS Cancer panel; type: cell-based
Method: as §1

U251 = experiment: NCI cytotoxicity screen, CNS Cancer panel; type: cell-based
Method: as §1

SF-295 = experiment: NCI cytotoxicity screen, CNS Cancer panel; type: cell-based; conditions: Homo sapiens
Method: as §1

[2] = Homo sapiens, five dose 0.01–100 µM
[3] = Homo sapiens, five dose 0.01–100 µM, read-out: LC50 (the source's name)
[4] = Homo sapiens, read-out: Percent growth inhibition

Q: For `c1cn2cc(-c3ccc4ncn(C5CCCCC5)c4c3)nc(-c3ccc4c(c3)ncn4C3CCCCC3)c2n1` [Compound 31, 8-(1-cyclohexyl-1H-benzo[d]imidazol-5-yl)-6-(1-cyclohexyl-1H-benzo[d]imidazol-6-yl)imidazo[1,2-a]pyrazine], which GI50 (DU-145; Homo sapiens) is on record?
A: 1.77 µM

Q: What about the TGI (DU-145; five dose 0.01–100 µM) of the same compound?
A: 3.28 µM

Q: And the GI50 (PC-3; Homo sapiens)?
A: 1.7 µM

Q: And the TGI (PC-3)?
A: 3.93 µM

Q: And the GI50 (K-562; Homo sapiens, K562)?
A: 2.57 µM

Q: And the CC50 (K-562; Homo sapiens, K562, K-562, five dose 0.01–100 µM, read-out: LC50 (the source's name))?
A: > 1 µM

Q: What about the TGI (K-562; K-562, five dose 0.01–100 µM) of the same compound?
A: >1.00 µM

Q: And the GI50 (RPMI-8226; Homo sapiens, five dose)?
A: 0.806 µM

Q: What about the GI50 (RPMI-8226; [2]) of the same compound?
A: 0.8 µM

Q: What about the CC50 (RPMI-8226; Homo sapiens, RPMI-8226, five dose 0.01–100 µM, read-out: LC50 (the source's name)) of the same compound?
A: > 1 µM

Q: And the TGI (RPMI-8226; RPMI-8226, five dose 0.01–100 µM)?
A: 3.99 µM

Q: And the GI50 (CCRF-CEM; Homo sapiens)?
A: 1.69 µM

Q: And the CC50 (CCRF-CEM; [3])?
A: > 1 µM

Q: What about the inhibition at 10 µM (CCRF-CEM; [4]) of the same compound?
A: 95.7%

Q: And the TGI (CCRF-CEM; five dose 0.01–100 µM)?
A: 6.08 µM

Q: And the GI50 (MOLT-4; Homo sapiens)?
A: 1.64 µM

Q: What about the CC50 (MOLT-4; [3]) of the same compound?
A: > 1 µM

Q: And the TGI (MOLT-4; five dose 0.01–100 µM)?
A: 5.22 µM

Q: And the GI50 (SR; Homo sapiens)?
A: 2.87 µM

Q: And the CC50 (SR; [3])?
A: > 1 µM

Q: What about the inhibition at 10 µM (SR; [4]) of the same compound?
A: 97.5%

Q: What about the TGI (SR; five dose 0.01–100 µM) of the same compound?
A: >1.00 µM

Q: What about the TGI (HL-60(TB); HL-60(TB), five dose 0.01–100 µM) of the same compound?
A: 4.57 µM

Q: And the GI50 (HL-60(TB); Homo sapiens, HL-60)?
A: 1.84 µM

Q: And the CC50 (HL-60(TB); Homo sapiens, HL-60(TB), five dose 0.01–100 µM, read-out: LC50 (the source's name))?
A: > 1 µM

Q: And the GI50 (TK-10; Homo sapiens)?
A: 2.02 µM

Q: What about the TGI (TK-10) of the same compound?
A: 3.65 µM

Q: What about the GI50 (786-0; Homo sapiens) of the same compound?
A: 1.73 µM

Q: And the TGI (786-0)?
A: 3.47 µM

Q: What about the logP [1] of the same compound?
A: 1.77

Q: What about the GI50 (SK-MEL-2; Homo sapiens) of the same compound?
A: 1.74 µM

Q: And the CC50 (SK-MEL-2; [3])?
A: 6.45 µM

Q: What about the TGI (SK-MEL-2; five dose 0.01–100 µM) of the same compound?
A: 3.35 µM

Q: And the GI50 (MALME-3M; Homo sapiens, Malme-3M)?
A: 2.11 µM

Q: What about the CC50 (MALME-3M; Homo sapiens, MALME-3M, five dose 0.01–100 µM, read-out: LC50 (the source's name)) of the same compound?
A: 6.68 µM

Q: What about the TGI (MALME-3M; MALME-3M, five dose 0.01–100 µM) of the same compound?
A: 3.75 µM

Q: What about the GI50 (SK-MEL-5; Homo sapiens) of the same compound?
A: 1.49 µM

Q: And the CC50 (SK-MEL-5; [3])?
A: 5.39 µM

Q: And the TGI (SK-MEL-5; five dose 0.01–100 µM)?
A: 2.83 µM

Q: And the GI50 (SK-MEL-28; Homo sapiens)?
A: 1.81 µM

Q: And the CC50 (SK-MEL-28; [3])?
A: 6.43 µM

Q: And the TGI (SK-MEL-28; five dose 0.01–100 µM)?
A: 3.41 µM

Q: And the GI50 (MDA-MB-435; Homo sapiens)?
A: 1.77 µM

Q: What about the CC50 (MDA-MB-435; [3]) of the same compound?
A: 7.11 µM

Q: And the TGI (MDA-MB-435; five dose 0.01–100 µM)?
A: 3.55 µM

Q: What about the GI50 (UACC-257; Homo sapiens) of the same compound?
A: 2.1 µM

Q: And the LC50 (UACC-257; [2])?
A: 6.24 µM

Q: What about the TGI (UACC-257; five dose 0.01–100 µM) of the same compound?
A: 3.62 µM

Q: And the GI50 (SNB-75; Homo sapiens)?
A: 1.39 µM

Q: What about the LC50 (SNB-75; [2]) of the same compound?
A: 6.77 µM

Q: And the TGI (SNB-75; five dose 0.01–100 µM)?
A: 3.07 µM

Q: And the GI50 (SNB-19; Homo sapiens, SNB-19)?
A: 2.11 µM

Q: And the inhibition at 10 µM (SNB-19; Homo sapiens, SNB-19, read-out: Percent growth inhibition)?
A: 93.4%

Q: What about the TGI (SNB-19; SNB-19, five dose 0.01–100 µM) of the same compound?
A: 4.95 µM

Q: What about the GI50 (U251; Homo sapiens, U-251) of the same compound?
A: 1.91 µM

Q: And the CC50 (U251; Homo sapiens, U-251, U251, five dose 0.01–100 µM, read-out: LC50 (the source's name))?
A: 6.98 µM

Q: What about the TGI (U251; U251, five dose 0.01–100 µM) of the same compound?
A: 3.65 µM

Q: What about the GI50 (SF-295) of the same compound?
A: 1.71 µM
